Data as given in PubChem BioAssay (NCI).
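Method: 48-hour compound exposure of cells in 96-well plates, five concentrations, linear interpolation of endpoints. The concentration for full growth arrest is given as TGI.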

How the values were obtained:
Test in all cases: NCI anticancer screen, dose series, 48 h
[1] = test system: 786-0 renal
[2] = test system: A498 renal
[3] = test system: A549 NSCLC
[4] = test system: ACHN renal
[5] = test system: BT-549 breast
[6] = test system: CAKI-1 renal
[7] = test system: CCRF-CEM leukemia
[8] = test system: COLO 205 colon
[9] = test system: DU-145 prostate
[10] = test system: EKVX NSCLC
[11] = test system: HCC-2998 colon
[12] = test system: HCT-116 colon
[13] = test system: HCT-15 colon
[14] = test system: HL-60(TB) leukemia
[15] = test system: HOP-62 NSCLC
[16] = test system: HS 578T breast
[17] = test system: HT29 colon
[18] = test system: IGROV1 ovarian
[19] = test system: K-562 leukemia
[20] = test system: KM12 colon
[21] = test system: LOX IMVI melanoma
[22] = test system: M14 melanoma
[23] = test system: MALME-3M melanoma
[24] = test system: MCF7 breast
[25] = test system: MDA-MB-231 breast
[26] = test system: MDA-MB-435
[27] = test system: MDA-N
[28] = test system: MOLT-4 leukemia
[29] = test system: NCI-H226 lung
[30] = test system: NCI-H23 lung
[31] = test system: NCI-H460 lung
[32] = test system: NCI-H522 lung
[33] = test system: NCI/ADR-RES ovarian
[34] = test system: OVCAR-3 ovarian
[35] = test system: OVCAR-4 ovarian
[36] = test system: OVCAR-5 ovarian
[37] = test system: OVCAR-8 ovarian
[38] = test system: PC-3 prostate
[39] = test system: RPMI-8226 leukemia
[40] = test system: RXF 393 renal
[41] = test system: SF-268 CNS
[42] = test system: SF-295 CNS
[43] = test system: SF-539 CNS
[44] = test system: SK-MEL-2 melanoma
[45] = test system: SK-MEL-28 melanoma
[46] = test system: SK-MEL-5 melanoma
[47] = test system: SK-OV-3 ovarian
[48] = test system: SN12C renal
[49] = test system: SNB-19 CNS
[50] = test system: SR leukemia
[51] = test system: SW-620 colon
[52] = test system: T-47D breast
[53] = test system: TK-10 renal
[54] = test system: U251 CNS
[55] = test system: UACC-257 melanoma
[56] = test system: UACC-62 melanoma
[57] = test system: HOP-92 NSCLC
[58] = test system: SNB-75 CNS
[59] = test system: UO-31 renal

Measured: TGI

N#Cc1ccc(CSC2=C(c3ccc(Cl)cc3)S/C(=C3\SC(SCc4ccc(C#N)cc4)=C(c4ccc(Cl)cc4)S3)S2)cc1
not listed: [57] | [58] | [59]
> 100 µM: all other assays above

CN(C)CCCNC(=O)CCNC(=O)c1cc(NC(=O)c2cc(NC(=O)c3cc(NC(=O)c4nccn4C)cn3C)cn2C)cn1C
> 20.3 µM: [35]
97.4 µM: [52]
97 µM: [32]
not listed: [50]
> 100 µM: all other assays above

Cc1ccc(-c2n[nH]c(=O)n2NC(=O)c2ccccc2C(=O)O)cc1
not listed: [2] | [7] | [8] | [10] | [35] | [36] | [47]
> 100 µM: all other assays above
